Test results from patent publication US11883413B2, “Inhibition of thymine DNA glycosylase in the treatment of cancer” (Institute For Cancer Research, priority 2013, dated 2024).

Tests used:
SK28 MEL melanoma cells = assay: clonogenic assay; assay type: cell-based
Method: (§1) Tests were conducted in quadruplicate.

SK28 cells = assay: MTS cell viability assay; assay type: cell-based; details: for cell viability of SK28 cells: concentration-dependent, quadruplicate
Method: as §1

TDG [1] = target: T1, TDG (Homo sapiens, UniProt Q13569); assay: standard (conventional) radioactive-based glycosylase assay; assay type: biochemical; details: tested at 100 nM, 10 μM and 1 mM
Text: (§2) (A) Schematic of the molecular beacon assay for G:T repair.
(§3) This assay was optimized for a 96-well and 384-well format. Upon screening the ICCB known bioactive library (approximately 500 compounds) and the Johns Hopkins clinical compound library (approximately 1500 drugs), eighteen and fourteen candidates, respectively (Tables 1 and 2) were identified. Some of these compounds confirmed TDG inhibition in a standard, radioactive-based glycosylase assay (FIG. 19).

cancer cells = assay: 5caC levels on chemotherapeutic treatment combined with TDG downregulation/inhibition; assay type: cell-based; details: for 5-carboxylcytosine levels, TDG inhibitor combined with temozolomide: combined with temozolomide treatment
Text: Vincristin is an inhibitor of mitosis that arrests cells in metaphase; it is used as a chemotherapeutic agent for leukemia/lymphoma and melanoma.

TDG [2] = target: T1, TDG; assay: TDG glycosylase activity in vitro (FIG. 24-25); assay type: biochemical
SK28 melanoma cells = assay: 5-carboxylcytosine (5caC) immunofluorescence staining of cells; assay type: cell-based; details: SK28 melanoma cells treated with compound
[3] = tested on: PC3 prostate cancer cells; assay: MTS assay, prostate cancer cells; assay type: cell-based
Method: (§4) The TDG inhibitors, juglone and closantel, were tested for their ability to kill PC3 and LNCaP prostate cancer cells.

[4] = tested on: LNCaP prostate cancer cells; assay: MTS assay, prostate cancer cells; assay type: cell-based
Method: as §4

[5] = tested on: PC3 prostate cancer cells; assay: clonogenic assay, prostate cancer cells; assay type: cell-based
Method: as §4

[6] = tested on: LNCaP prostate cancer cells; assay: clonogenic assay, prostate cancer cells; assay type: cell-based
Method: as §4

TDG [7] = target: T1, TDG; assay: molecular beacon qPCR-based assay of TDG glycosylase activity (G:T / G:U repair), library screen; assay type: biochemical; details: 0, 5, 50 and 500 μg/ml
Method: as §2
In the folded hairpin substrate, the fluorescence of 6-FAM, used as fluorescent label at the 5′ end, is quenched by a dabsyl “black hole” moiety at the 3′ end. Upon removal of the mismatched T or U by TDG, and incision of the resulting apurinic/apyrimidinic (AP site) by APE, a short oligonucleotide containing 6-FAM was released. The resulting fluorescence was monitored by real-time qPCR over a 2-hour incubation period at 37° C., providing a sensitive and quantitative measurement of repair activity.
as §3

[8] = combined with TDG downregulation (C8)

T1 sequence (Q13569 whole entry): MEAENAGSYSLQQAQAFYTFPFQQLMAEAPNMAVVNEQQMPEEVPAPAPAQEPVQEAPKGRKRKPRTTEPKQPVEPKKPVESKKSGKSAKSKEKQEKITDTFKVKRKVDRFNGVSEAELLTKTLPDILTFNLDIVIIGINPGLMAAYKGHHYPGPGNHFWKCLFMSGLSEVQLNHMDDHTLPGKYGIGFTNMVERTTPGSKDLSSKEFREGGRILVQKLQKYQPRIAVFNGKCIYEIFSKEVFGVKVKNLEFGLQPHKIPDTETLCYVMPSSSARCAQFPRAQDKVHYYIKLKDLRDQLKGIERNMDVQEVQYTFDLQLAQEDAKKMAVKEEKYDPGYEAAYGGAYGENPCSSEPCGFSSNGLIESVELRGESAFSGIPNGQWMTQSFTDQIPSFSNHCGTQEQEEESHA

Compound	clonogenic capacity of SK28 MEL melanoma cells (SK28 MEL melanoma cells)	cell viability of SK28 cells (SK28 cells)	inhibition of TDG activity, conventional glycosylase assay (TDG [1])	relative potency in conventional glycosylase assay (TDG [1])	5-carboxylcytosine levels, TDG inhibitor combined with temozolomide (cancer cells)	inhibition of TDG glycosylase activity in vitro (TDG [2])	5caC staining in the nuclei of cells in culture (SK28 melanoma cells)	proliferation of PC3 cells, MTS assay [3]	proliferation of LNCaP cells, MTS assay [4]	proliferation of PC3 cells, clonogenic assay [5]	proliferation of LNCaP cells, clonogenic assay [6]	inhibition of TDG activity, molecular beacon assay for G:T repair (TDG [7])	SK28 cell viability, cisplatin combined with TDG downregulation (SK28 cells; [8])	5caC levels, vincristine combined with TDG downregulation (cancer cells; [8])	5caC levels, vincristine alone (cancer cells; in the absence of TDG downregulation (pLKO))
C=CC1=C(C(=O)O)N2C(=O)[C@@H](NC(=O)/C(=N\OCC(=O)O)c3csc(N)n3)[C@H]2SC1 [Cefixime, (6R,7R)-7-{[2-(2-amino-1,3-thiazol-4-yl)-2-(carboxymethoxyimino)acetyl]amino}-3-ethenyl-8-oxo-5-thia-1-azabicyclo[4.2.0]oct-2-ene-2-carboxylic acid]	reduction of clonogenic capacity	reduce cell viability	inhibition of TDG activity	more potent than compound 2, closantel	–	–	–	–	–	–	–	–	–	–	–
Cc1cc(C(C#N)c2ccc(Cl)cc2)c(Cl)cc1NC(=O)c1cc(I)cc(I)c1O (stereo not drawn) [Closantel, 5′-Chloro-4′-(4-chloro-α-cyanobenzyl)-3,5-diiodo-2′-methylsalicylanilide, N-[5-Chloro-4-(4-chloro-α-cyanobenzyl)-2-methylphenyl]-2-hydroxy-3,5-diiodobenzamide]	reduction of clonogenic capacity	reduce cell viability	inhibition of TDG activity	–	highly elevated	inhibition of TDG glycosylase activity in vitro	increase 5caC staining	stopped proliferation	stopped proliferation	stopped proliferation	stopped proliferation	–	–	–	–
O=C1C=CC(=O)c2c(O)cccc21 [Juglone, 5-hydroxynaphthoquinone]	reduction of clonogenic capacity	reduce cell viability	–	–	highly elevated	inhibition of TDG glycosylase activity in vitro	increase 5caC staining	stopped proliferation	stopped proliferation	stopped proliferation	stopped proliferation	Dose dependent inhibition	–	–	–
N.N.[Cl][Pt][Cl] [cisplatin]	–	–	–	–	–	–	–	–	–	–	–	–	reduction of SK28 cell viability	–	–
CC[C@]1(O)C[C@H]2CN(CCc3c([nH]c4ccccc34)[C@@](C(=O)OC)(c3cc4c(cc3OC)N(C=O)[C@H]3[C@@](O)(C(=O)OC)[C@H](OC(C)=O)[C@]5(CC)C=CCN6CC[C@]43[C@@H]65)C2)C1 [vincristine]	–	–	–	–	–	–	–	–	–	–	–	–	–	further increased	increase of 5caC levels
